Results taken from US20070160725A1, “Use of extracts and compounds of allium-genus plants as preservatives in the food and agri-food industries” (MOUSALA, S., L., priority 2004, published 2007).

Columns and labels:
[1] = tested on: Aspergillus niger, CECT 2700; assay: agar diffusion, inhibition halo; assay type: cell-based
Description: (§1) In order to evaluate the antimicrobial activity the agar diffusion technique with cellulose discs of 6 mm in diameter impregnated with the different active ingredient testing doses was used.
(§2) Antifungal capacity was assessed against suspensions of […], harvested from pure cultures of the selected molds and against suspensions of 10^7 cells/ml for the case of yeasts. The culture medium used was the 2% Sabouraud-glucose medium (Merck).
(§3) After incubating the culture dishes inoculated with the different organisms at the corresponding temperatures, the microbial inhibition halos that appeared were measured, and said measurement includes the 6 mm diameter of the cellulose discs.

[2] = tested on: Candida parapsilosis, isolated from cheese; assay: agar diffusion, inhibition halo; assay type: cell-based
Description: as §1, §2, §3

[3] = tested on: Penicillium sp, isolated from cheese; assay: agar diffusion, inhibition halo; assay type: cell-based
Description: as §1, §2, §3

[4] = tested on: Candida krusei, isolated from cheese; assay: agar diffusion, inhibition halo; assay type: cell-based
Description: as §1, §2, §3

[5] = tested on: Aspergillus terreus, isolated from the environment of the cheese maturation chamber; assay: agar diffusion, inhibition halo; assay type: cell-based
Description: as §1, §2, §3

[6] = tested on: Saccharomyces cerevisiae, CECT 1324; assay: agar diffusion, inhibition halo; assay type: cell-based
Description: as §1, §2, §3

[7] = tested on: Candida magnoliae, isolated from cheese; assay: agar diffusion, inhibition halo; assay type: cell-based
Description: as §1, §2, §3

[8] = tested on: Escherichia coli; assay: microbiological quality of treated hamburgers and fresh sausage: Escherichia coli count
Description: The tests were conducted on meat products such as hamburgers and fresh sausage at different doses, with and without the usual preservatives (sulfites).
Each sample is prepared in quintuplicate and microbiological quality control over time is conducted, a triplicate of each sample being performed.
The positive Brila Broth tubes obtained in the coliform study are used according to the following protocol:
All the tubes having gas production are subcultured again with an inoculation loop in tubes containing 10 mL of Brila Broth (with a Durham tube), being incubated at 44.5° C. for 24-48 hours.
Once the incubation has elapsed the existence of Escherichia coli is assumed in any tube with growth and with gas formation under the previously discussed conditions.
Eosine Methylene Blue (Merck EMB) was used as a selective confirmation medium, isolating on dishes containing EMB from all the positive tubes. The occurrence of colonies measuring 2-3 mm in diameter (planar or slightly concave), with dark almost black centers occupying ¾ of the colony which, with reflected light, sometimes show a greenish metallic glow, which are most likely Escherichia coli, the confirmation of which is done by means of the indole biochemistry test.
When positive growth (gas) in Brila Broth at 44.5° C., indole production and characteristic growth on EMB agar coincide, the reading is done in the MPN table and the data is extrapolated.
The result is expressed as the number of
Escherichia coli per gram of sample.
Two different raw meat products (sausages and hamburgers) treated with different allicin doses are prepared. • The used testing doses were: 25, 50 and 100 ppm.
Five samples of each product (hamburger and sausage) are prepared, each one of them being analyzed in triplicate.
The microbiological parameters analyzed were as follows: • Total mesophilic aerobes • Coliforms • Escherichia coli • Salmonella (presence/absence in 25 g) • Said parameters were analyzed at different times: • 0 days • 4 days • 7 days • The sample references resulted as follows: […]

For `C=CCS[S+]([O-])CC=C` (centres unmarked) [Allicin, allyl allylthiosulfinate], the inhibition halo diameter ([1]; 25 ppm) was 10 mm, the inhibition halo diameter ([1]; 50 ppm) was 13 mm and the inhibition halo diameter ([1]; 100 ppm) was 19 mm. The inhibition halo diameter ([2]; 50 ppm) was 14 mm, the inhibition halo diameter ([2]; 100 ppm) was 17 mm and the inhibition halo diameter ([3]; 25 ppm) was 22 mm. The inhibition halo diameter ([3]; 50 ppm) was 26 mm, the inhibition halo diameter ([3]; 100 ppm) was 34 mm and the inhibition halo diameter ([4]; 25 ppm) was 14 mm. It also gave an inhibition halo diameter ([4]; 50 ppm) of 18 mm, an inhibition halo diameter ([4]; 100 ppm) of 29 mm and an inhibition halo diameter ([5]; 25 ppm) of 12 mm. It also gave an inhibition halo diameter ([5]; 50 ppm) of 22 mm, an inhibition halo diameter ([5]; 100 ppm) of 25 mm and an inhibition halo diameter ([6]; 25 ppm) of 28 mm. It also gave an inhibition halo diameter ([6]; 50 ppm) of 32 mm, an inhibition halo diameter ([6]; 100 ppm) of 44 mm and an inhibition halo diameter ([7]; 25 ppm) of 22 mm. It also gave an inhibition halo diameter ([7]; 50 ppm) of 30 mm, an inhibition halo diameter ([7]; 100 ppm) of 38 mm and an Escherichia coli ([8]; hamburger, 25 ppm of allicin (H-1), t = 0 days) of 23 cfu/g. For the same compound, the Escherichia coli ([8]; hamburger, 25 ppm of allicin (H-1), t = 4 days) was 150 cfu/g, the Escherichia coli ([8]; hamburger, 50 ppm of allicin (H-2), t = 0 days) was 23 cfu/g and the Escherichia coli ([8]; hamburger, 50 ppm of allicin (H-2), t = 4 days) was 150 cfu/g. The Escherichia coli ([8]; hamburger, 100 ppm of allicin (H-3), t = 0 days) was 23 cfu/g, the Escherichia coli ([8]; hamburger, 100 ppm of allicin (H-3), t = 4 days) was 43 cfu/g and the Escherichia coli ([8]; sausage, 25 ppm of allicin (S-1), t = 0 days) was <3 cfu/g. The Escherichia coli ([8]; sausage, 25 ppm of allicin (S-1), t = 4 days) was 4 cfu/g, the Escherichia coli ([8]; sausage, 50 ppm of allicin (S-2), t = 0 days) was <3 cfu/g and the Escherichia coli ([8]; sausage, 50 ppm of allicin (S-2), t = 4 days) was 4 cfu/g. The Escherichia coli ([8]; sausage, 100 ppm of allicin (S-3), t = 0 days) was <3 cfu/g and the Escherichia coli ([8]; sausage, 100 ppm of allicin (S-3), t = 4 days) was <3 cfu/g.
